Here are results for three compounds from article PMC7045412, “Natural biased signaling of hydroxycarboxylic acid receptor 3 and G protein-coupled receptor 84” (Cell Communication and Signaling : CCS, 2020).

Experiment [1] has as its target T1, hydroxycarboxylic acid receptor 3 (HCA3) (Homo sapiens, UniProt P49019).
T1 construct: gene HCAR3
Description: DMR ([…]) in receptor-transfected CHO-K1 cells. The class given is cell-based.

The target of experiment [2] is G protein-coupled receptor 84 (GPR84) (Homo sapiens, UniProt Q9NQS5). Briefly: cAMP inhibition, DMR and ERK assays in receptor-transfected CHO-K1/HEK293-T cells. The experiment is classed as cell-based.
Chain of G protein-coupled receptor 84 (GPR84) (Q9NQS5 whole entry): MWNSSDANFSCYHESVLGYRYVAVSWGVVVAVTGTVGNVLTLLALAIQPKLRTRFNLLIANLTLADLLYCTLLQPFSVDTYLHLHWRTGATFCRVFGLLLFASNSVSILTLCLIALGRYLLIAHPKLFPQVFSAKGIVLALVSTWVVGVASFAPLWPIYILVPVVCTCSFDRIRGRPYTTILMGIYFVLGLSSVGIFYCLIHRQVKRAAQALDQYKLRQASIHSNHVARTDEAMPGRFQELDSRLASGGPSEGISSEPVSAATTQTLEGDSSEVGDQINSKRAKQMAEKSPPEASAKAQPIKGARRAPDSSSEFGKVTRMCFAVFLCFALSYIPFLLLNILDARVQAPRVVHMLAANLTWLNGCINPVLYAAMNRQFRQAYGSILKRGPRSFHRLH

T1 sequence (P49019 whole entry): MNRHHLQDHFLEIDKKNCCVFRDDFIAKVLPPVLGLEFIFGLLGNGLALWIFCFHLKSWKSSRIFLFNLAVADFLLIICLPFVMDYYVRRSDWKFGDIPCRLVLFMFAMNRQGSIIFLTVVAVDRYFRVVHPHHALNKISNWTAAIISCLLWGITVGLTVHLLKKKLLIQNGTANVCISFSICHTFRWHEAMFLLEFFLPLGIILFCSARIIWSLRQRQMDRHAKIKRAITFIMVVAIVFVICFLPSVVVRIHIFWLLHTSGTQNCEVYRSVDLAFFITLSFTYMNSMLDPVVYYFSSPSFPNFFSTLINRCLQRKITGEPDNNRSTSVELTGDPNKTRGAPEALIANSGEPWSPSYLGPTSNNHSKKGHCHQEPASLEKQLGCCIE

As to `N[C@H](Cc1ccccc1)C(=O)O` [D-Phe, D-phenylalanine], in experiment [1], the “DMR (250 μM) in receptor-transfected CHO-K1 cells” value is “dynasore affected the DMR-response of human and gorilla HCA3 to D-Phe and L-PLA in a similar manner”.
Regarding `CCCCCCCCCC(=O)O` [C10, decanoic acid], the EC50 entry in experiment [2] was “C10 and 3HDec activated GPR84”.
Still for that read-out and setting: in the case of `CCCCCCCC(O)CC(=O)O` (stereo not drawn) [3HDec, 3-hydroxydecanoic acid] it was “In contrast, C10 and 3HDec but not 3HO activated GPR84”.
